According to ChEMBL document CHEMBL5150040, “Bis-aryl-α,β-unsaturated ketone (ABK) chaperonin inhibitors exhibit selective cytotoxicity to colorectal cancer cells that correlates with levels of aberrant HSP60 in the cytosol” (Bioorg Med Chem, 2022):
The source made the active and inactive calls. The rule behind the calls is not given here.

Key:
[1] = Inhibition of Escherichia coli GroEL expressed in NEB-5-alpha Escherichia coli cells/Escherichia coli GroES expressed in Escherichia coli BL21(DE3) cells assessed as inhibition of GroEL/ES-mediated dMDH refolding by reporter analysis
[2] = Inhibition of Escherichia coli GroEL expressed in NEB-5-alpha Escherichia coli cells/Escherichia coli GroES expressed in Escherichia coli BL21(DE3) cells assessed as inhibition of GroEL/ES-mediated dRho refolding by reporter analysis
[3] = Inhibition of human mitochondrial HSP60 expressed in Escherichia coli Rosetta 2 (DE3) cells/human mitochondrial HSP10 expressed in Escherichia coli Rosetta 2 (DE3) pLysS cells assessed as inhibition of […]-mediated dMDH refolding by reporter analysis; assay type: mitochondria, Mitochondria
[4] = Inhibition of refolded rhodanese reporter enzyme (unknown origin); design: species or system Homo sapiens
[5] = Inhibition of refolded MDH reporter enzyme (unknown origin); design: species or system Homo sapiens
[6] = test system: HCT-116; experiment: Cytotoxicity against human HCT-116 cells assessed as reduction in cell viability incubated for 48 hrs by AlamarBlue-based assay; assay type: functional; conditions: HCT-116, 48 h
[7] = test system: DLD-1; experiment: Cytotoxicity against human DLD-1 cells assessed as reduction in cell viability incubated for 48 hrs by AlamarBlue-based assay; assay type: functional; conditions: DLD-1, 48 h
[8] = test system: HT-29; experiment: Cytotoxicity against human HT-29 cells assessed as reduction in cell viability incubated for 48 hrs by AlamarBlue-based assay; assay type: functional; conditions: HT-29, 48 h
[9] = test system: HCT-116; experiment: Cytotoxicity against p53-/- human HCT-116 cells assessed as reduction in cell viability incubated for 48 hrs by AlamarBlue-based assay; assay type: functional; conditions: HCT-116, 48 h
[10] = Cytotoxicity against human FHs74Int cells assessed as reduction in cell viability incubated for 48 hrs by AlamarBlue-based assay; assay type: toxicity
[11] = Cytotoxicity against human FHC cells assessed as reduction in cell viability incubated for 48 hrs by AlamarBlue-based assay; assay type: toxicity
[12] = Selectivity index, ratio of CC50 for cytotoxicity against non-cancerous cells to EC50 for cytotoxicity against human HCT-116 cells; assay type: toxicity, cell-based; conditions: non-cancerous cells versus HCT-116 cells, read-out: Ratio CC50/EC50
[13] = test system: HCT-116; experiment: Cytotoxicity against human HCT-116 cells assessed as reduction in cell viability incubated for 72 hrs by AlamarBlue-based assay relative to control; assay type: functional
[14] = test system: HCT-116; experiment: Cytotoxicity against human HCT-116 cells assessed as reduction in cell viability at 0.01 to 100 uM by Trypan Blue staining based analysis; assay type: functional; conditions: dose 0.01-100 µM, time 24-48 hrs, TDE = time-dependent effect
[15] = test system: HCT-116; experiment: Induction of apoptosis in human HCT-116 cells at 0.1 to 100 uM incubated for 48 hrs by AnnexinV-FITC/PI staining based flow cytometry; assay type: functional, cell-based; conditions: dose 0.1-100 µM
[16] = test system: HCT-116; experiment: Induction of necrotic cell death in human HCT-116 cells at 0.1 to 100 uM incubated for 48 hrs by AnnexinV-FITC/PI staining based flow cytometry; assay type: functional; conditions: dose 0.1-100 µM
[17] = test system: HCT-116; experiment: Inhibition of clonogenicity in human HCT-116 cells at > 1 uM incubated for 72 hrs followed by incubation in fresh medium for 7 days by crystal violet staining based analysis; assay type: functional, cell-based
[18] = test system: Escherichia coli; experiment: Inhibition of Escherichia coli GroEL expressed in NEB-5-alpha Escherichia coli cells/Escherichia coli GroES expressed in Escherichia coli BL21(DE3) cells assessed as inhibition of GroEL/ES-mediated dMDH refolding measured after 24 hrs dialysis period by reporter analysis
[19] = test system: HCT-116; experiment: Inhibition of cell migration in human HCT-116 cells measured after 26 hrs by scratch wound healing assay; assay type: functional, cell-based; conditions: HCT-116, 26 h
[20] = test system: HCT-116; experiment: Cytotoxicity against human HCT-116 cells assessed as reduction in cell viability incubated for 48 hrs by AlamarBlue-based assay relative to control; assay type: functional

| SMILES | IC50 [1] [µM] | IC50 [2] [µM] | IC50 [3] [µM] | IC50 [4] [µM] | IC50 [5] [µM] | EC50 [6] [µM] | EC50 [7] [µM] | EC50 [8] [µM] | EC50 [9] [µM] | CC50 at 48 h [10] [µM] | CC50 at 48 h [11] [µM] | selectivity ratio [12] | Activity [13] [%] | Activity [14] | Activity [15] | Activity [16] | inhibition [17] | inhibition [18] | EC50 [19] [µM] | Activity [20] [%] |
| --- | --- | --- | --- | --- | --- | --- | --- | --- | --- | --- | --- | --- | --- | --- | --- | --- | --- | --- | --- | --- |
| CC(=O)Nc1ccc(C(=O)/C=C/c2ccco2)cc1 | 41 | 67 | 44 | > 100 | > 63 | 56 | 84 | 88 | 72 | 99 | > 100 | 1.8 |  |  |  |  |  |  |  |  |
| O=C(/C=C/c1ccccc1)c1ccc(NC(=O)c2cccs2)cc1 | 3.8 | 20 | 4.7 | > 100 | > 63 | 12 | 35 | 28 | 16 | 40 | 83 | 4.9 |  |  |  |  |  |  |  |  |
| O=C(/C=C/c1ccccc1)c1ccc(NC(=O)c2ccccc2)cc1 | 4.3 | 27 | 5.9 | > 100 | > 63 | 17 | 46 | 36 | 28 | 60 | 73 | 3.9 |  |  |  |  |  |  |  |  |
| Nc1ccc(C(=O)/C=C/c2ccco2)cc1 | 5.9 | 12 | 9.8 | 55 | 46 | 21 | 31 | 28 | 24 | 86 | 90 | 4.2 |  |  |  |  |  |  |  |  |
| O=C(/C=C/c1ccc([N+](=O)[O-])cc1)c1ccc(O)c(O)c1 | 2 | 1.3 | 6.2 | 45 | > 63 | 5.8 | 9.6 | 8.2 | 6.1 | 11 | 28 | 3.4 |  |  |  |  |  |  |  |  |
| O=C(/C=C/c1cccc([N+](=O)[O-])c1)c1ccc(NC(=O)c2ccco2)cc1 | 0.73 | 2.2 | 2.5 | > 100 | > 63 | 3.4 | 22 | 3.5 | 4.1 | 54 | > 100 | 23 | 100 | Tde | Active | Active | Active | Active |  |  |
| O=C(/C=C/c1ccccc1)c1ccc(O)cc1 [4'-HYDROXYCHALCONE] | 20 | 61 | 21 | > 100 | > 63 | 20 | 34 | 30 | 21 | 65 | 82 | 3.7 |  |  |  |  |  |  |  |  |
| Nc1ccc(C(=O)/C=C/c2ccccc2)cc1 | 57 | 135 | 43 | > 100 | > 63 | 27 | 33 | 35 | 23 | 97 | > 100 | 3.7 |  |  |  |  |  |  |  |  |
| O=C(/C=C/c1ccco1)c1ccc(NC(=O)c2cccs2)cc1 | 6.7 | 9.7 | 12 | > 100 | > 63 | 33 | 56 | 50 | 45 | 68 | 93 | 2.4 |  |  |  |  |  |  |  |  |
| O=C(/C=C/c1cccc([N+](=O)[O-])c1)c1ccc(NC(=O)c2ccccc2)cc1 | 0.71 | 3.1 | 2.3 | > 100 | > 63 | 4.1 | > 100 | 3.9 | 25 | > 100 | > 100 | 24 |  |  |  |  |  |  |  |  |
| O=C(NCc1ccccc1)c1ccccc1 | > 100 | > 250 | > 100 | > 100 | > 63 | > 100 | > 100 | > 100 | > 100 | > 100 | > 100 |  |  |  |  |  |  |  |  |  |
| O=C(/C=C/c1ccccc1)c1ccccc1 [CHALCONE] | 7.1 | 27 | 8.6 | > 100 | > 63 | 9.5 | 25 | 14 | 11 | 46 | 71 | 6.2 |  |  |  |  |  |  |  |  |
| OC(/C=C/c1ccccc1)c1ccccc1 (stereo unspecified) | > 100 | > 250 | > 100 | > 100 | > 63 | > 100 | > 100 | > 100 | > 100 | > 100 | > 100 |  |  |  |  |  |  |  |  |  |
| O=C(/C=C/c1ccc(O)cc1)c1ccccc1 [4-HYDROXYCHALCONE] | 20 | 39 | 21 | > 100 | > 63 | 32 | 51 | 39 | 32 | 97 | > 100 | 3.1 |  |  |  |  |  |  |  |  |
| CC(=O)Nc1ccc(C(=O)/C=C/c2cccc([N+](=O)[O-])c2)cc1 | 2.1 | 7 | 7.7 | > 100 | > 63 | 1.7 | 6.3 | 2 | 1.8 | 12 | 15 | 7.9 |  |  |  |  |  |  |  |  |
| O=C(/C=C/c1ccco1)c1ccc(NC(=O)c2ccccc2)cc1 | 21 | 37 | 20 | > 100 | > 63 | 42 | 69 | 76 | 59 | > 100 | > 100 | 2.4 |  |  |  |  |  |  |  |  |
| COc1ccc(C(=O)/C=C/c2ccccc2)cc1 [4'-METHOXYCHALCONE] | 13 | 34 | 16 | > 100 | > 63 | 16 | 35 | 23 | 17 | 37 | 62 | 3.2 |  |  |  |  |  |  |  |  |
| COc1ccc(/C=C/C(=O)c2ccccc2)cc1 [4-METHOXY CHALCONE] | 27 | 46 | 22 | > 100 | > 63 | 22 | 52 | 32 | 30 | 91 | 99 | 4.4 |  |  |  |  |  |  |  |  |
| O=C(CCc1ccccc1)c1ccccc1 | > 100 | > 250 | > 100 | > 100 | > 63 | > 100 | > 100 | > 100 | > 100 | > 100 | > 100 |  |  |  |  |  |  |  |  |  |
| O=C(/C=C/c1cccc([N+](=O)[O-])c1)c1ccc(NC(=O)c2cccs2)cc1 | 0.41 | 1.5 | 2.2 | > 100 | > 63 | 2.6 | 11 | 2.5 | 2.5 | 24 | 73 | 19 |  | Tde | Active | Active | Active |  | 13 | 100 |
| CC(=O)Nc1ccc(C(=O)/C=C/c2ccccc2)cc1 | 9.4 | 40 | 14 | > 100 | > 63 | 11 | 28 | 13 | 11 | 58 | 86 | 6.7 |  |  |  |  |  |  |  |  |
